pIC50: −log10 of the molar value.
What follows are compounds tested against T1, Human complement C1s enzyme (Homo sapiens, UniProt P09871) (assay: Human C1s enzyme assay). Settings: not given.
T1 sequence (P09871 438-688 limits assumed): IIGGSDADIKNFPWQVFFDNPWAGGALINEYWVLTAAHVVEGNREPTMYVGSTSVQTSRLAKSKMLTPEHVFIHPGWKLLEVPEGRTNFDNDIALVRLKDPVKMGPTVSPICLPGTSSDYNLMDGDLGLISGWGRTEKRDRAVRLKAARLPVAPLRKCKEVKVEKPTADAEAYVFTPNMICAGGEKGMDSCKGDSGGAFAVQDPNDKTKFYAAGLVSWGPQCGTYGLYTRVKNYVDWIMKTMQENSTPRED
T1 sequence (P09871 16-437 partner limits assumed): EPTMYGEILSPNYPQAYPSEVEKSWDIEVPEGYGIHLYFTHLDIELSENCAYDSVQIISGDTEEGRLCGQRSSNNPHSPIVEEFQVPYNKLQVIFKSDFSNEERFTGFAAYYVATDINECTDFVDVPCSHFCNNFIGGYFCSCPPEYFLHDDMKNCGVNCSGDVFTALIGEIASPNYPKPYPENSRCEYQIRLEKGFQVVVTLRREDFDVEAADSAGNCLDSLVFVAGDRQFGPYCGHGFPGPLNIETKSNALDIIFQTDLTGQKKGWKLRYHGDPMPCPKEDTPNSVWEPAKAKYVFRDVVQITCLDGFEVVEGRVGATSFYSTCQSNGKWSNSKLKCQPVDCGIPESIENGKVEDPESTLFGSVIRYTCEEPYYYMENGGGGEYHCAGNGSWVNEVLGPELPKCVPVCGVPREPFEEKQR
Type: biochemical
Procedure, shortened: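 Serum-purified human C1s (1.16 nM final) preincubated 5 min at room temperature with compound in 50 mM Tris, 1 M NaCl, pH 7.5. Z-L-Lys-SBzl and DTNB added at 100 μM each; A405 followed every 30 s for 30 min, and IC50 obtained by nonlinear regression of reaction rates.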

| Compound | pIC50 |
| --- | --- |
| C[C@@H](NC(=O)[C@@H]1C[Si](C)(C)CN1C(=O)CNC(=O)c1ccc2c(c1)Oc1ccccc1S2)c1cc2cnccc2[nH]1 [Compound 168, (R)-N-((R)-1-(1H-pyrrolo[3,2-c]pyridin-2-yl)ethyl)-3,3-dimethyl-1-((phenoxathiine-3-carbonyl)glycyl)-1,3-azasilolidine-5-carboxamide] | > 7.00 |

Same assay, conditions: human complement C1s enzyme 1.16 nM, substrate Z-L-Lys-SBzl 100 μM, 5 min preincubation; read-out: IC50 (Stars), C1s Inhibiting Activity

| pIC50 | Compound |
| --- | --- |
| > 7.00 | COC[C@@H]1C[C@@H](C(=O)N[C@H](C)c2cc3cnccc3[nH]2)N(C(=O)CNC(=O)c2ccc3c(c2)Oc2ccccc2S3)C1 [Compound 149, (2S,4R)-N-((R)-1-(1H-pyrrolo[3,2-c]pyridin-2-yl)ethyl)-4-(methoxymethyl)-1-((phenoxathiine-3-carbonyl)glycyl)pyrrolidine-2-carboxamide] |
| > 7.00 | C[C@@H](NC(=O)[C@@H]1C[C@@H](c2nccs2)CN1C(=O)CNC(=O)c1ccc2c(c1)Oc1ccccc1S2)c1cc2cnccc2[nH]1 [Compound 150, (2S,4R)-N-((R)-1-(1H-pyrrolo[3,2-c]pyridin-2-yl)ethyl)-1-((phenoxathiine-3-carbonyl)glycyl)-4-(thiazol-2-yl)pyrrolidine-2-carboxamide] |
| 6.00 to 7.00 | O=C(NCC(=O)N1CC[C@@H](O)[C@H]1C(=O)NCc1cc2cnccc2[nH]1)c1ccc(Oc2ccccc2)cc1 [Compound 151, (2S,3R)-N-((1H-pyrrolo[3,2-c]pyridin-2-yl)methyl)-3-hydroxy-1-((4-phenoxybenzoyl)glycyl)pyrrolidine-2-carboxamide] |
| > 7.00 | C[C@@]12C[C@@H]1N(C(=O)CNC(=O)c1cccc(Oc3ccccc3)c1)[C@H](C(=O)NCc1cc3cnccc3[nH]1)C2 [Compound 152, (1S,3S,5S)-N-((1H-pyrrolo[3,2-c]pyridin-2-yl)methyl)-5-methyl-2-((3-phenoxybenzoyl)glycyl)-2-azabicyclo[3.1.0]hexane-3-carboxamide] |
| > 7.00 | C[C@@]12C[C@@H]1N(C(=O)CNC(=O)c1cccc(Oc3ccc(F)cc3)c1)[C@H](C(=O)NCc1cc3cnccc3[nH]1)C2 [Compound 153, (1S,3S,5S)-N-((1H-pyrrolo[3,2-c]pyridin-2-yl)methyl)-2-((3-(4-fluorophenoxy)benzoyl)glycyl)-5-methyl-2-azabicyclo[3.1.0]hexane-3-carboxamide] |
| > 7.00 | O=C(NCC(=O)N1C[C@H](OC(F)F)C[C@H]1C(=O)NCc1cc2cnccc2[nH]1)c1cccc(Oc2ccc(F)cc2)c1 [Compound 154, (2S,4R)-N-((1H-pyrrolo[3,2-c]pyridin-2-yl)methyl)-4-(difluoromethoxy)-1-((3-(4-fluorophenoxy)benzoyl)glycyl)pyrrolidine-2-carboxamide] |
| 6.00 to 7.00 | C[C@@]12C[C@@H](C(=O)NCc3cc4cnccc4[nH]3)N(C(=O)CNC(=O)c3cccc(Oc4ccc(F)cc4)c3)[C@@H]1C2 [Compound 155, (1R,3S,5R)-N-((1H-pyrrolo[3,2-c]pyridin-2-yl)methyl)-2-((3-(4-fluorophenoxy)benzoyl)glycyl)-5-methyl-2-azabicyclo[3.1.0]hexane-3-carboxamide] |
| 6.00 to 7.00 | C[C@@]12C[C@@H]1N(C(=O)CN1Cc3ccc(Oc4ccccc4)cc3C1=O)[C@H](C(=O)NCc1cc3cnccc3[nH]1)C2 [Compound 156, (1S,3S,5S)-N-((1H-pyrrolo[3,2-c]pyridin-2-yl)methyl)-5-methyl-2-(2-(1-oxo-6-phenoxyisoindolin-2-yl)acetyl)-2-azabicyclo[3.1.0]hexane-3-carboxamide] |
| > 7.00 | O=C(NCC(=O)N1CC2(C[C@H]1C(=O)NCc1cc3cnccc3[nH]1)OCCO2)c1cccc(Oc2ccc(F)cc2)c1 [Compound 157, (S)-N-((1H-pyrrolo[3,2-c]pyridin-2-yl)methyl)-7-((3-(4-fluorophenoxy)benzoyl)glycyl)-1,4-dioxa-7-azaspiro[4.4]nonane-8-carboxamide] |
| > 7.00 | O=C(NCC(=O)N1CC[C@@H](O)[C@H]1C(=O)NCc1cc2cnccc2[nH]1)c1ccc2c(c1)Oc1ccccc1S2 [Compound 158, (2S,3R)-N-((1H-pyrrolo[3,2-c]pyridin-2-yl)methyl)-3-hydroxy-1-((phenoxathiine-3-carbonyl)glycyl)pyrrolidine-2-carboxamide] |
| < 6.00 | C[C@@]12C[C@@H]1N(C(=O)CNC(=O)c1cccc(-c3ccccc3)n1)[C@H](C(=O)NCc1cc3cnccc3[nH]1)C2 [Compound 159, (1S,3S,5S)-N-((1H-pyrrolo[3,2-c]pyridin-2-yl)methyl)-5-methyl-2-((6-phenylpicolinoyl)glycyl)-2-azabicyclo[3.1.0]hexane-3-carboxamide] |
| > 7.00 | CO[C@@H]1C[C@@H](C(=O)N[C@H](C)c2cc3cnccc3[nH]2)N(C(=O)CNC(=O)c2ccc3c(c2)Oc2ccccc2S3)C1 [Compound 160, (2S,4R)-N-((R)-1-(1H-pyrrolo[3,2-c]pyridin-2-yl)ethyl)-4-methoxy-1-((phenoxathiine-3-carbonyl)glycyl)pyrrolidine-2-carboxamide] |
| > 7.00 | C[C@@H](NC(=O)[C@@H]1C[C@]2(CO)C[C@@H]2N1C(=O)CNC(=O)c1ccc2c(c1)Oc1ccccc1S2)c1cc2cnccc2[nH]1 [Compound 161, (1S,3S,5R)-N-((R)-1-(1H-pyrrolo[3,2-c]pyridin-2-yl)ethyl)-5-(hydroxymethyl)-2-((phenoxathiine-3-carbonyl)glycyl)-2-azabicyclo[3.1.0]hexane-3-carboxamide] |
| 6.00 to 7.00 | C[C@@H](NC(=O)[C@@H]1C[C@](F)(CF)CN1C(=O)CNC(=O)c1ccc(-c2ccc(F)cc2F)cc1)c1cc2cnccc2[nH]1 [Compound 162, (2S,4R)-N-((R)-1-(1H-pyrrolo[3,2-c]pyridin-2-yl)ethyl)-1-((2′,4′-difluoro-[1,1′-biphenyl]-4-carbonyl)glycyl)-4-fluoro-4-(fluoromethyl)pyrrolidine-2-carboxamide] |
| < 6.00 | C[C@@H](NC(=O)[C@@H]1C[C@]2(C)C[C@@H]2N1C(=O)CNC(=O)c1ccc(Oc2ccccc2)cc1)c1cc(B(O)O)cs1 [Compound 163, (5-((R)-1-((1S,3S,5S)-5-methyl-2-((4-phenoxybenzoyl)glycyl)-2-azabicyclo[3.1.0]hexane-3-carboxamido)ethyl)thiophen-3-yl)boronic acid] |
| > 7.00 | C[C@@H](NC(=O)[C@@H]1C[C@](F)(CF)CN1C(=O)CNC(=O)c1ccc2c(c1)Oc1ccccc1S2)c1cc2cnccc2[nH]1 [Compound 164, (2S,4R)-N-((R)-1-(1H-pyrrolo[3,2-c]pyridin-2-yl)ethyl)-4-fluoro-4-(fluoromethyl)-1-((phenoxathiine-3-carbonyl)glycyl)pyrrolidine-2-carboxamide] |
| > 7.00 | C[C@H]1C[C@@H](C(=O)N[C@H](C)c2cc3cnccc3[nH]2)N(C(=O)CNC(=O)c2ccc3c(c2)Oc2ccccc2S3)C1 [Compound 165, (2S,4S)-N-((R)-1-(1H-pyrrolo[3,2-c]pyridin-2-yl)ethyl)-4-methyl-1-((phenoxathiine-3-carbonyl)glycyl)pyrrolidine-2-carboxamide] |
| > 7.00 | C[C@H]1C[C@@H](C(=O)N[C@H](C)c2cc3cnccc3[nH]2)N(C(=O)CNC(=O)c2ccc3c(c2)-c2ccccc2C3(F)F)C1 [Compound 166, (2S,4S)-N-((R)-1-(1H-pyrrolo[3,2-c]pyridin-2-yl)ethyl)-1-((9,9-difluoro-9H-fluorene-3-carbonyl)glycyl)-4-methylpyrrolidine-2-carboxamide] |
| > 7.00 | C[C@@H](NC(=O)[C@@H]1C[C@@H](OC(F)F)CN1C(=O)CNC(=O)c1ccc2c(c1)C(F)(F)c1ccccc1-2)c1cc2cnccc2[nH]1 [Compound 167, (2S,4R)-N-((R)-1-(1H-pyrrolo[3,2-c]pyridin-2-yl)ethyl)-1-((9,9-difluoro-9H-fluorene-2-carbonyl)glycyl)-4-(difluoromethoxy)pyrrolidine-2-carboxamide] |
| > 7.00 | C[C@@H](NC(=O)[C@@H]1C[C@@H](c2ccccc2)CN1C(=O)CNC(=O)c1ccc2c(c1)Oc1ccccc1S2)c1cc2cnccc2[nH]1 [Compound 169, (2S,4S)-N-((R)-1-(1H-pyrrolo[3,2-c]pyridin-2-yl)ethyl)-1-((phenoxathiine-3-carbonyl)glycyl)-4-phenylpyrrolidine-2-carboxamide] |
| > 7.00 | C[C@@]12C[C@@H]1N(C(=O)CNC(=O)c1ccc3c(c1)Oc1ccccc1S3)[C@H](C(=O)NCc1cc3c(s1)CCNC3)C2 [Compound 170, (1S,3S,5S)-5-methyl-2-((phenoxathiine-3-carbonyl)glycyl)-N-((4,5,6,7-tetrahydrothieno[3,2-c]pyridin-2-yl)methyl)-2-azabicyclo[3.1.0]hexane-3-carboxamide] |
| > 7.00 | C[C@@H](NC(=O)[C@@H]1C[C@]2(C)C[C@@H]2N1C(=O)CNC(=O)c1cccc(Oc2ccccc2)c1)c1cc2cnccc2[nH]1 [Compound 171, (1S,3S,5S)-N-((R)-1-(1H-pyrrolo[3,2-c]pyridin-2-yl)ethyl)-5-methyl-2-((3-phenoxybenzoyl)glycyl)-2-azabicyclo[3.1.0]hexane-3-carboxamide] |
